Laboratory results reported in the supplement of paper PMC10307832.

How the values were obtained:
Assay in all cases: relative viability (nuclei count vs DMSO), 5 days (fraction); higher = more cells survive
[1] = test system: EMC-BAC-2
How it was run: (§1)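 For relative viability, nuclei counts in treated wells were divided by those in vehicle wells. Lung cancer cell lines had been pin-tool dosed in 1536-well plates the day after seeding and cultured for 5 days, then fixed and stained in one step (final 0.05% Triton X-100, 1% formaldehyde, 1 ug/ml Hoechst) and imaged at 4×. Doses were one drug alone or a fixed anchor-drug dose plus five library-drug doses (not always all listed) in √10 steps, and values are duplicate-plate medians.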

[2] = test system: EPLC-272H
How it was run: as §1

[3] = test system: HCC-44
How it was run: as §1

[4] = test system: LCLC-103H
How it was run: as §1

[5] = test system: NCI-H23
How it was run: as §1

[6] = test system: NCI-H322M
How it was run: as §1

[7] = test system: NCI-H2085
How it was run: as §1

[8] = test system: SK-MES-1
How it was run: as §1

[9] = test system: NCI-H1993
How it was run: as §1

[10] = test system: NCI-H2405
How it was run: as §1

[11] = test system: H3255
How it was run: as §1

[12] = test system: NCI-H650
How it was run: as §1

[13] = test system: LCLC-97TM1
How it was run: as §1

[14] = test system: ChaGo-K-1
How it was run: as §1

[15] = test system: HCC-827
How it was run: as §1

[16] = test system: NCI-H1395
How it was run: as §1

[17] = test system: NCI-H1793
How it was run: as §1

[18] = test system: UMC-11
How it was run: as §1

[19] = test system: NCI-H520
How it was run: as §1

[20] = test system: NCI-H1944
How it was run: as §1

[21] = test system: NCI-H2087
How it was run: as §1

[22] = test system: NCI-H1355
How it was run: as §1

[23] = test system: NCI-H1651
How it was run: as §1

C[C@@H]1CN(CC(=O)Nc2ccc3c(c2)Cc2cccc(-c4cc(=O)cc(N5CCOCC5)o4)c2S3)C[C@H](C)O1 + O=C(c1cc(Cc2n[nH]c(=O)c3ccccc23)ccc1F)N1CCN(C(=O)C2CC2)CC1 [Olaparib] (partner 8 µM)
relative viability ([1]; first compound 0.04 µM): 0.512 | relative viability ([1]; first compound 0.1265 µM): 0.579 | relative viability ([1]; first compound 0.4 µM): 0.513 | relative viability ([1]; first compound 4 µM): 0.263 | relative viability ([2]; first compound 0.04 µM): 0.956 | relative viability ([2]; first compound 0.1265 µM): 0.81 | relative viability ([2]; first compound 0.4 µM): 0.647 | relative viability ([2]; first compound 4 µM): 0.317 | relative viability ([3]; first compound 0.04 µM): 0.94 | relative viability ([3]; first compound 0.1265 µM): 1.02 | relative viability ([3]; first compound 0.4 µM): 0.955 | relative viability ([3]; first compound 4 µM): 0.969 | relative viability ([4]; first compound 0.04 µM): 0.71 | relative viability ([4]; first compound 0.1265 µM): 0.739 | relative viability ([4]; first compound 0.4 µM): 0.771 | relative viability ([4]; first compound 4 µM): 0.722 | relative viability ([5]; first compound 0.04 µM): 0.352 | relative viability ([5]; first compound 0.1265 µM): 0.317 | relative viability ([5]; first compound 0.4 µM): 0.264 | relative viability ([5]; first compound 4 µM): 0.227 | relative viability ([6]; first compound 0.04 µM): 0.632 | relative viability ([6]; first compound 0.1265 µM): 0.794 | relative viability ([6]; first compound 0.4 µM): 0.81 | relative viability ([6]; first compound 4 µM): 0.643 | relative viability ([7]; first compound 0.04 µM): 0.755 | relative viability ([7]; first compound 0.1265 µM): 0.786 | relative viability ([7]; first compound 0.4 µM): 0.781 | relative viability ([7]; first compound 4 µM): 0.345 | relative viability ([8]; first compound 0.04 µM): 0.78 | relative viability ([8]; first compound 0.1265 µM): 0.721 | relative viability ([8]; first compound 0.4 µM): 0.686 | relative viability ([8]; first compound 4 µM): 0.252 | relative viability ([9]; first compound 0.04 µM): 1.06 | relative viability ([9]; first compound 0.1265 µM): 0.963 | relative viability ([9]; first compound 0.4 µM): 0.942 | relative viability ([9]; first compound 4 µM): 0.81 | relative viability ([10]; first compound 0.04 µM): 0.938 | relative viability ([10]; first compound 0.1265 µM): 0.93 | relative viability ([10]; first compound 0.4 µM): 0.837 | relative viability ([10]; first compound 4 µM): 0.578 | relative viability ([11]; first compound 0.04 µM): 0.554 | relative viability ([11]; first compound 0.1265 µM): 0.532 | relative viability ([11]; first compound 0.4 µM): 0.522 | relative viability ([11]; first compound 4 µM): 0.452 | relative viability ([12]; first compound 0.04 µM): 0.436 | relative viability ([12]; first compound 0.1265 µM): 0.48 | relative viability ([12]; first compound 0.4 µM): 0.438 | relative viability ([12]; first compound 4 µM): 0.258 | relative viability ([13]; first compound 0.1265 µM): 0.381 | relative viability ([13]; first compound 0.4 µM): 0.462 | relative viability ([13]; first compound 4 µM): 0.37 | relative viability ([14]; first compound 0.04 µM): 0.461 | relative viability ([14]; first compound 0.1265 µM): 0.428 | relative viability ([14]; first compound 0.4 µM): 0.404 | relative viability ([14]; first compound 4 µM): 0.389 | relative viability ([15]; first compound 0.04 µM): 0.674 | relative viability ([15]; first compound 0.1265 µM): 0.653 | relative viability ([15]; first compound 0.4 µM): 0.678 | relative viability ([15]; first compound 4 µM): 0.438 | relative viability ([16]; first compound 0.1265 µM): 0.482 | relative viability ([16]; first compound 0.4 µM): 0.506 | relative viability ([16]; first compound 4 µM): 0.458 | relative viability ([17]; first compound 0.04 µM): 1.01 | relative viability ([17]; first compound 0.1265 µM): 0.784 | relative viability ([17]; first compound 0.4 µM): 0.86 | relative viability ([17]; first compound 4 µM): 0.255 | relative viability ([18]; first compound 0.04 µM): 0.32 | relative viability ([18]; first compound 0.1265 µM): 0.351 | relative viability ([18]; first compound 0.4 µM): 0.86 | relative viability ([18]; first compound 4 µM): 0.272 | relative viability ([19]; first compound 0.04 µM): 0.43 | relative viability ([19]; first compound 0.1265 µM): 0.308 | relative viability ([19]; first compound 0.4 µM): 0.31 | relative viability ([19]; first compound 4 µM): 0.202 | relative viability ([20]; first compound 0.1265 µM): 0.371 | relative viability ([20]; first compound 0.4 µM): 0.386 | relative viability ([20]; first compound 4 µM): 0.321 | relative viability ([21]; first compound 0.04 µM): 0.649 | relative viability ([21]; first compound 0.1265 µM): 0.546 | relative viability ([21]; first compound 0.4 µM): 0.602 | relative viability ([21]; first compound 4 µM): 0.214 | relative viability ([22]; first compound 0.04 µM): 0.783 | relative viability ([22]; first compound 0.1265 µM): 0.699 | relative viability ([22]; first compound 0.4 µM): 0.664 | relative viability ([22]; first compound 4 µM): 0.482 | relative viability ([23]; first compound 0.04 µM): 0.173 | relative viability ([23]; first compound 0.1265 µM): 0.167 | relative viability ([23]; first compound 0.4 µM): 0.178 | relative viability ([23]; first compound 4 µM): 0.139
